The record followed here is patent publication US20240116998A1, “GLUCAGON-LIKE PEPTIDE-1 RECEPTOR ANTAGONISTS” (INDIANA UNIVERSITY RESEARCH AND TECHNOLOGY CORPORATION, priority 2021, published 2024).

Starred links: 1 amine or outer side, 2 acyl side, 3 side chain; linkers in the order of their positions; H or OH if unused. Residues, ends and D or L forms follow the SMILES beside them. Groups on a side chain read outwards from the residue. *: point of attachment. γGlu = O=C(O)[C@H](CCC(=O)[*:2])N[*:1]; Palmitoyl = CCCCCCCCCCCCCCCC(=O)*; AEEA = NCCOCCOCC(=O)O

As usually defined, the solubility is how much of the substance goes into solution per volume. A word on the IC50: it is the concentration that inhibits the measured activity by half.

Series [1] deals with C57B1/6 mice. The series can be described thus: Glucose tolerance test after subcutaneous GLP-1 antagonist (acute in vivo study). To be noted: s.c. antagonist, i.p. glucose 1.5 g/kg four hours later. How it is done:
FIGS. 2A & 2B present data from a glucose tolerance test wherein mice are subcutaneously administered the GLP-1 antagonist followed four hours later by intraperitoneal administration of glucose (1.5 g glucose per kg body weight).
C57B1/6 mice were obtained from Jackson Laboratories. Mice were single- or group-housed on a 12:12 h light-dark cycle at 22° C. with free access to food and water. All studies were approved by and performed according to the guidelines of the Institutional Animal Care and Use Committee of the University of Cincinnati.
For the determination of glucose tolerance, mice were subjected to 6 h of fasting and injected intraperitoneally with glucose. Injections consisted of 1.5 g glucose per kg body weight (25% w/v D-glucose (Sigma) in 0.9% w/v saline). Tail blood glucose levels (mg dL-1) were measured using a hand-held glucometer (FreeStyle Freedom Lite) before 0 min and at 15, 30, 60, and 120 min after injection.
Mice received a subcutaneous injection of peptide (in PBS) either 1, 4, 8, 24, 48, 72, or 120 at varying doses before being challenged with an IP injection of dipeptidyl peptidase-IV-protected Ex-4 (0.65 nmol kg−1). A GTT was performed fifteen minutes after the GLP-1 injection. Tail blood glucose values were obtained as described above.

Series [2] in a line: Solubility of peptides in buffer. The following applies: pH 7.7. The series is classed as physicochemical.
Series [3] deals with T1, human GLP-1 receptor (Homo sapiens, UniProt P43220).
T1 construct: host or cells: HEK 293
T1 sequence (P43220 24-463): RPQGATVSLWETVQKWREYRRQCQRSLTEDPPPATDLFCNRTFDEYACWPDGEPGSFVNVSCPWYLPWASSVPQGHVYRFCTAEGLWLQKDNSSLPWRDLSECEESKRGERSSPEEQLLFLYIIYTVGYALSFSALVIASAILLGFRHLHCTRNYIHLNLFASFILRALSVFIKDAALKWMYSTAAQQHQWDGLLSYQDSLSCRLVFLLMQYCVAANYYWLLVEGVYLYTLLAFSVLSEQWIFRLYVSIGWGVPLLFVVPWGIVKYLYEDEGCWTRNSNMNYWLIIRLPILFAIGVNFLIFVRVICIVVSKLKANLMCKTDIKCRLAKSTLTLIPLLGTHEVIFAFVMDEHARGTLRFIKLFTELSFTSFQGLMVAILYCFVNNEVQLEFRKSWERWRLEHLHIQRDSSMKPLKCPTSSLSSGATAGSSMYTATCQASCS
Briefly: GLP-1 receptor-mediated cAMP induction, luciferase reporter gene assay (antagonism mode). To be noted: Table 2; HEK 293 cells, human GLP-1R, vs 0.05 nM GLP-1; read-out: Bioactivity IC50. It is filed as cell-based. On the procedure:
GLP-1 Receptor-Mediated cAMP Induction
The ability of peptides to stimulate or block cAMP induction at the GLP-1 receptor was examined by a luciferase-based reporter gene assay. Cotransfection of HEK 293 cells with the human GLP-1 receptor (Open Biosystems) and a cAMPinducible (cAMPresponsive element) luciferase gene constituted the cellular construct where receptor activation could be measured. Bioassays were performed by first serum depriving the cells for 16 h in 0.25% bovine growth serum (HyClone)-supplemented Dulbecco's modified Eagle's medium (Invitrogen) and then adding serial dilutions of the peptides over the appropriate concentration ranges in 96-well poly-D-lysine-coated plates (BD Biosciences). For antagonism assays, a constant concentration of GLP-1 (0.05 nM) was added to the assay plate after the diluted peptides. Incubation continued for 5 h at 37° C., 5% CO2 and was followed by the addition of an equivalent volume (100 μL) of LucLite luminescence substrate reagent (Perkin-Elmer). MicroBeta 1450 liquid scintillation counting (Perkin-Elmer) quantified the luminescence signal in counts per second (cps) after shaking the plate at 600 rpm for 3 min. Data was plotted using Origin software (OriginLab) and the effective concentration 50 (EC50) or inhibitory concentration 50 (IC50) was determined by sigmoidal fitting. Potency was determined by comparative analysis of relative EC50 or IC50 values. Each experiment was repeated at least three times with each sample assayed in duplicate.
(In a reporter assay the amount or activity of a reporter protein is the signal.)

Turning to `CCCCCCCCCCCCCCCC(=O)N[C@@H](CCC(=O)NCCOCCOCC(=O)NCCCC[C@H](NC(=O)[C@H](CO)NC(=O)[C@@H]1CCCN1C(=O)[C@@H]1CCCN1C(=O)[C@@H]1CCCN1C(=O)[C@H](C)NC(=O)CNC(=O)[C@H](CO)NC(=O)[C@H](CO)NC(=O)[C@@H]1CCCN1C(=O)CNC(=O)CNC(=O)[C@H](CCCNC(=N)N)NC(=O)[C@@H](NC(=O)[C@H](CC(C)C)NC(=O)[C@H](Cc1c[nH]c2ccccc12)NC(=O)[C@H](CCC(=O)O)NC(=O)[C@@H](NC(=O)[C@H](Cc1ccccc1)NC(=O)[C@H](CCC(=O)O)NC(=O)[C@H](CCCNC(=N)N)NC(=O)[C@@H](NC(=O)[C@H](C)NC(=O)[C@H](CCC(N)=O)NC(=O)[C@H](CCC(=O)O)NC(=O)[C@H](CCC(=O)O)NC(=O)[C@H](CC(C)C)NC(=O)[C@H](Cc1ccc(O)cc1)NC(=O)[C@H](CCCNC(=N)N)NC(=O)[C@H](CO)NC(=O)[C@@H](NC(=O)[C@@H](N)CC(=O)O)C(C)C)C(C)C)[C@@H](C)CC)C(C)C)C(=O)O)C(=O)O` [SEQ ID NO: 16] (H-DVSRYLEEQAVREFIEWLVRGGPSSGAPPPSK([AEEA-γGlu-Palmitoyl])-OH), the “GLP-1 antagonist activity in glucose tolerance test” value in series [1] (FIG. 2A) is “full antagonist”. The “Potency relative to the GLP-1 antagonist Ex-9-40 in glucose tolerance test” value in series [1] (FIGS. 2A & 2B) is listed as “much higher potency”.

In the case of `CCCCCCCCCCCCCCCC(=O)NCCOCCOCC(=O)NCCOCCOCC(=O)N[C@@H](CCC(=O)N[C@@H](CCC(=O)NCCCC[C@H](NC(=O)[C@H](CO)NC(=O)[C@@H]1CCCN1C(=O)[C@@H]1CCCN1C(=O)[C@@H]1CCCN1C(=O)[C@H](C)NC(=O)CNC(=O)[C@H](CO)NC(=O)[C@H](CO)NC(=O)[C@@H]1CCCN1C(=O)CNC(=O)CNC(=O)[C@H](CCCCN)NC(=O)[C@@H](NC(=O)[C@H](CC(C)C)NC(=O)[C@H](Cc1c[nH]c2ccccc12)NC(=O)[C@H](C)NC(=O)[C@@H](NC(=O)[C@H](Cc1ccccc1)NC(=O)[C@H](CCC(=O)O)NC(=O)[C@H](CCCNC(=N)N)NC(=O)[C@@H](NC(=O)[C@H](C)NC(=O)[C@H](CCC(N)=O)NC(=O)[C@H](CCC(=O)O)NC(=O)[C@H](CCC(=O)O)NC(=O)[C@H](CC(C)C)NC(=O)[C@H](Cc1ccc(O)cc1)NC(=O)[C@H](CO)NC(=O)[C@H](CO)NC(=O)[C@@H](NC(=O)[C@@H](N)CC(=O)O)C(C)C)C(C)C)[C@@H](C)CC)C(C)C)C(N)=O)C(=O)O)C(=O)O` [SEQ ID NO: 61] (H-DVSSYLEEQAVREFIAWLVKGGPSSGAPPPSK([γGlu-γGlu-AEEA-AEEA-Palmitoyl])-NH2; N-terminus assumed), the solubility in series [2] was more than 25 mg/mL. Besides, in series [3], the half-inhibitory concentration (IC50) was found to be 6 nM.

For the compound `CCCCCCCCCCCCCCCC(=O)N[C@@H](CCC(=O)N[C@@H](CCC(=O)NCCOCCOCC(=O)NCCOCCOCC(=O)NCCCC[C@H](NC(=O)[C@H](CO)NC(=O)[C@@H]1CCCN1C(=O)[C@@H]1CCCN1C(=O)[C@@H]1CCCN1C(=O)[C@H](C)NC(=O)CNC(=O)[C@H](CO)NC(=O)[C@H](CO)NC(=O)[C@@H]1CCCN1C(=O)CNC(=O)CNC(=O)[C@H](CCCCN)NC(=O)[C@@H](NC(=O)[C@H](CC(C)C)NC(=O)[C@H](Cc1c[nH]c2ccccc12)NC(=O)[C@H](C)NC(=O)[C@@H](NC(=O)[C@H](Cc1ccccc1)NC(=O)[C@H](CCC(=O)O)NC(=O)[C@H](CCCNC(=N)N)NC(=O)[C@@H](NC(=O)[C@H](C)NC(=O)[C@H](CCC(N)=O)NC(=O)[C@H](CCC(=O)O)NC(=O)[C@H](CCC(=O)O)NC(=O)[C@H](CC(C)C)NC(=O)[C@H](Cc1ccc(O)cc1)NC(=O)[C@H](CO)NC(=O)[C@H](CO)NC(=O)[C@@H](NC(=O)[C@@H](N)CC(=O)O)C(C)C)C(C)C)[C@@H](C)CC)C(C)C)C(N)=O)C(=O)O)C(=O)O` [SEQ ID NO: 58] (H-DVSSYLEEQAVREFIAWLVKGGPSSGAPPPSK([AEEA-AEEA-γGlu-γGlu-Palmitoyl])-NH2; N-terminus assumed), the IC50 in series [3] was 11 nM.

With `CCCCCCCCCCCCCCCC(=O)N[C@@H](CCC(=O)NCCOCCOCC(=O)NCCOCCOCC(=O)N[C@@H](CCC(=O)NCCCC[C@H](NC(=O)[C@H](CO)NC(=O)[C@@H]1CCCN1C(=O)[C@@H]1CCCN1C(=O)[C@@H]1CCCN1C(=O)[C@H](C)NC(=O)CNC(=O)[C@H](CO)NC(=O)[C@H](CO)NC(=O)[C@@H]1CCCN1C(=O)CNC(=O)CNC(=O)[C@H](CCCCN)NC(=O)[C@@H](NC(=O)[C@H](CC(C)C)NC(=O)[C@H](Cc1c[nH]c2ccccc12)NC(=O)[C@H](C)NC(=O)[C@@H](NC(=O)[C@H](Cc1ccccc1)NC(=O)[C@H](CCC(=O)O)NC(=O)[C@H](CCCNC(=N)N)NC(=O)[C@@H](NC(=O)[C@H](C)NC(=O)[C@H](CCC(N)=O)NC(=O)[C@H](CCC(=O)O)NC(=O)[C@H](CCC(=O)O)NC(=O)[C@H](CC(C)C)NC(=O)[C@H](Cc1ccc(O)cc1)NC(=O)[C@H](CO)NC(=O)[C@H](CO)NC(=O)[C@@H](NC(=O)[C@@H](N)CC(=O)O)C(C)C)C(C)C)[C@@H](C)CC)C(C)C)C(N)=O)C(=O)O)C(=O)O` [SEQ ID NO: 57] (H-DVSSYLEEQAVREFIAWLVKGGPSSGAPPPSK([γGlu-AEEA-AEEA-γGlu-Palmitoyl])-NH2; N-terminus assumed), the solubility in series [2] was more than 25 mg/mL. For the same compound, the IC50 in series [3] worked out at 9 nM.
